Peptide text beside a SMILES is read from it.
Tests used:
Type in all cases: cell-based
SAOS-2-Zellen [1] = assay: Stimulation of ossification, Alizarin red staining
Description: Die Ausführungsbeispiele zeigen, dass die Tetrapeptide Seq ID 1-6 wenigstens die gleiche Wirksamkeit aufweisen wie Testosteron und die Testosteronanaloga. Dabei weisen sie als Tetrapeptide jedoch nicht die hormonbedingten Nebenwirkungen auf, da sie nur am membrangebundenen Androgenrezeptor ZIP-9 binden und nicht im Zellkern am klassischen Androgenrezeptor (AR). Eine besonders positive Wirkung kommt dem erfindungsgemäßen Tetrapeptid 1 Seq ID 1 zu. Die Wirksamkeit der erfindungsgemäßen Tetrapeptide Seq ID 1-6 zur Behandlung der Osteoporose, myodegenerativen Erkrankungen (zum Beispiel Muskeldystrophie, insbesondere jedoch Muskelatrophie) sowie der männlichen Infertilität wird experimentell in Zellkultur in einem charakteristischen Zellmodell gezeigt. Zur Verabreichung an Menschen und Tiere wird mindestens ein erfindungsgemäße Tetrapeptid als medizinisches Mittel in einer pharmazeutisch akzeptablen Komposition als Arzneimittel formuliert. Das medizinische Mittel wird zur Behandlung der Osteoporose, myodegenerativen Erkrankungen sowie der männlichen Infertilität bei Menschen und Tieren eingesetzt. Es löst dabei keine übermäßige Toxizität, Irritationen oder allergische Reaktionen aus. Bevorzugt wird das medizinische Mittel umfassend mindestens ein erfindungsgemäßes Tetrapeptid Menschen oder Tieren in Form entweder oral, intramuskulär, intraossär, rektal, parenteral, intravenös, subkutan, intracisternal, intravaginal, intraperitoneal, intrathekal, intravasculär, lokal (Puder, Salbe oder Tropfen), in Sprayform oder als Pflaster verabreicht. Dosierungsformen für die örtliche Administration des medizinischen Mittels dieser Erfindung schließen Salben, Puder, Sprays oder Inhalationsmittel ein. Das mindestens eine erfindungsgemäße Tetrapeptid als medizinisches Mittel wird unter sterilen Bedingungen mit einem physiologisch akzeptablen Trägerstoff und möglichen Konservierungsmitteln, Puffern oder Treibmitteln, je nach Bedarf, vermischt. Ein Konservierungsmittel ist eine Chemikalie, die zugesetzt wird, um die Zersetzung zu verhindern. Es hilft, das medizinische Mittel gegen Bakterien- und Pilzbefall oder Abbau durch Enzyme zu schützen, indem es das Wachstum von Bakterien oder Pilzen verhindern und/oder die Zersetzung des Mittels verlangsamt. Bevorzugt wird das medizinische Mittel dieser Erfindung als Lyophilisat hergestellt. Bevorzugt wird das medizinische Mittel dieser Erfindung oral verabreicht. Da das darin enthaltene mindestens eine Tetrapeptid sehr klein ist, wird es von proteolytischen Enzymen nicht so rasch abgebaut und kann seine Wirksamkeit am ZIP-9 Rezeptor sehr selektiv und sehr spezifisch entfalten. Die Tetrapeptide Seq ID 1-6 werden gemäß Verfahren, die der Fachmann kennt, einfach und mit geringen Kosten hergestellt. Sie weisen in lyophilisierter Form eine lange Lagerungsbeständigkeit und hohe Aktivität auf. Die Lagerung ist bei Raumtemperatur möglich. Ein Vorteil ist, dass aufgrund der hohen Spezifität nur geringe Mengen verabreicht werden müssen, um an den ZIP-9 Rezeptor zu binden und dort die positiven Effekte auszulösen. In einem besonderen Ausführungsbeispiel wird das Tetrapeptid Seq ID 1 verkapselt, damit es im Magen-Darm-Trakt nicht abgebaut (säure-hydrolysiert), sondern als Tetrapeptid in den Blutkreislauf aufgenommen wird. Dazu werden z.B. mesoporöse Silicapartikel verwendet, die die Bioverfügbarkeit verlängern. Alternativ werden an das Tetrapeptid Polymere angehängt, wie z.B. Polyethlenglycolgruppen (PEGylierung). […]

Claudin-1 = assay: Stimulation of Claudin-1 formation, fluorescence measurement; conditions: 93RS2 Sertoli-Zellen; relative to control sample without tetrapeptide
Description: (§1) Die besondere Wirksamkeit von Tetrapeptid Seq ID 1 umfasst weiterhin die Stimulierung der Bildung von Claudin-1 und Claudin-5 in Zellen. Claudine sind kleine Transmembranproteine, die in vielen Organismen, Menschen und Tieren vorkommen und in ihrem Aufbau sehr ähnlich sind. Sie haben entscheidende Funktionen zur Bildung einer funktionierenden Barriere in verschiedenen Epithelien. Es gibt zahlreiche […] von Claudinen, die weitgehend ubiquitär exprimiert sind und Grundfunktionen für die Bildung der Tight-Junction-Bänder übernehmen. Caudin-1 und Claudin-5 sind spezialisierte Claudine, die an der Blut-Hoden-Schranke der männlichen Gonaden exprimiert werden. Ihre Beteiligung an der Ausbildung und Aufrechterhaltung der Tight Junctions an der Blut-Hoden-Schranke schützt die männlichen Keimzellen vor Angriffen des eigenen Immunsystems. Somit gehen Defekte der Blut-Hoden-Schranke immer mit Infertilität einher. […] Experimentell erfolgt die Quantifizierung der Stimulation der Bildung von Claudin-1 und/oder Claudin-5 in der Zelle durch Fluoreszenzmessung. Der quantitative Messwert zur Beschreibung der Stimulation der Bildung von Claudin-1 und/oder Claudin-5 in 93RS2 Sertoli-Zellen ist die Fluoreszenzintensität der mit dem Tetrapeptid behandelten Zellen bei mikroskopischer Betrachtung im direkten Vergleich mit einer gleichbehandelten Kontrollprobe ohne Tetrapeptid.

[2] = tested on: Zonula Occludens-1 (ZO-1); assay: Stimulation of ZO-1 expression, fluorescence measurement; conditions: Sertoli-Zellen; Fig. 4B-4D
Description: Experimentell erfolgt die Quantifizierung der Stimulation der Bildung von ZO-1 in 93RS2 Sertoli-Zellen durch quantitative Auswertung der Messung der Expression von ZO-1. Der quantitative Messwert zur Beschreibung der Stimulation der Expression von ZO-1 ist die Häufigkeit (Frequenz), mit der mindestens ein bestimmter Wert ("Wert") der Fluoreszenzintensität gemessen wird. Die Bedeutung der Begriffe "Häufigkeit"/"Frequenz" und "Wert"/"Wert der Fluoreszenzintensität" ist dabei analog der Bedeutung im Zusammenhang mit der Alkalischen Phosphatase und bezieht sich hierbei auf Fig. 4F bzw. Fig. 4G bzw. Fig. 4H bzw. Fig. 4I. Die Häufigkeit des mindestens einen bestimmten Wertes der in den mit dem erfindungsgemäßen Tetrapeptid behandelten Zellen gemessenen Werte im direkten Vergleich mit der Häufigkeit des mindestens einen gleichen Wertes, die in Tetrapeptid-freien aber ansonsten gleich behandelten Kontrollzellen gemessen wird, beträgt ab dem Wert 70 mindestens 120 % der in den gleich behandelten Kontrollzellen gemessenen Häufigkeit ab dem Wert 70.
Die Durchführung des Färbevorganges erfolgt bei allen Proben (Referenz, Vergleichsprobe mit Testosteron und Tetrapeptid) in gleicher Weise, so dass die Farbstärke (erkennbar in der photographischen Darstellung in Fig. 1A und Fig. 1B anhand der Grauwerte in der jeweiligen Abbildung) als Maß für die Stimulierung dient (je dunkler der Grauwert, umso stärker die Stimulation zur Ossifikation). […] Dem Fachmann sind diese Zusammenhänge bekannt, ebenso weiß er wie Untersuchungen der Expression von Enzymen, und somit auch der ALP, quantitativ durchgeführt werden, so dass darauf hier nur allgemein eingegangen werden muss. […] Im Rahmen der vorliegenden Ausführungsbeispiele (Beispielmessungen) wurden alle dem Fachmann bekannten Parameter, beispielsweise Lösungsmittel- und Pufferzusammensetzungen sowie -Konzentrationen, Temperaturen, Geräteeinstellungen (z. B. für die Messung der Fluoreszenzstärke) usw. in geeigneten Grenzen konstant gehalten, so dass die Versuchsergebnisse die beschriebenen quantitativ-vergleichbaren relativen Ergebnisse liefern. […]

L6-Myoblasten [3] = assay: Formation of myotubes (muscle fibres) from myoblasts; conditions: 9 Stunden Inkubation, Fig. 3B
Description: (§2) Die Ausführungsbeispiele zeigen, dass die Tetrapeptide Seq ID 1-6 wenigstens die gleiche Wirksamkeit aufweisen wie Testosteron und die Testosteronanaloga. Dabei weisen sie als Tetrapeptide jedoch nicht die hormonbedingten Nebenwirkungen auf, da sie nur am membrangebundenen Androgenrezeptor ZIP-9 binden und nicht im Zellkern am klassischen Androgenrezeptor (AR). Eine besonders positive Wirkung kommt dem erfindungsgemäßen Tetrapeptid 1 Seq ID 1 zu. Die Wirksamkeit der erfindungsgemäßen Tetrapeptide Seq ID 1-6 zur Behandlung der Osteoporose, myodegenerativen Erkrankungen (zum Beispiel Muskeldystrophie, insbesondere jedoch Muskelatrophie) sowie der männlichen Infertilität wird experimentell in Zellkultur in einem charakteristischen Zellmodell gezeigt. Zur Verabreichung an Menschen und Tiere wird mindestens ein erfindungsgemäße Tetrapeptid als medizinisches Mittel in einer pharmazeutisch akzeptablen Komposition als Arzneimittel formuliert. Das medizinische Mittel wird zur Behandlung der Osteoporose, myodegenerativen Erkrankungen sowie der männlichen Infertilität bei Menschen und Tieren eingesetzt. Es löst dabei keine übermäßige Toxizität, Irritationen oder allergische Reaktionen aus. […]

[4] = tested on: Alkalischen Phosphatase (ALP); assay: Expression of alkaline phosphatase, immunofluorescence; conditions: SAOS-2 Osteoblasten; for Expression der Alkalischen Phosphatase (grüne Fluoreszenz): Fig. 2A, 2B
Description: Die Ausführungsbeispiele zeigen, dass die Tetrapeptide Seq ID 1-6 wenigstens die gleiche Wirksamkeit aufweisen wie Testosteron und die Testosteronanaloga. Dabei weisen sie als Tetrapeptide jedoch nicht die hormonbedingten Nebenwirkungen auf, da sie nur am membrangebundenen Androgenrezeptor ZIP-9 binden und nicht im Zellkern am klassischen Androgenrezeptor (AR). Eine besonders positive Wirkung kommt dem erfindungsgemäßen Tetrapeptid 1 Seq ID 1 zu. Die Wirksamkeit der erfindungsgemäßen Tetrapeptide Seq ID 1-6 zur Behandlung der Osteoporose, myodegenerativen Erkrankungen (zum Beispiel Muskeldystrophie, insbesondere jedoch Muskelatrophie) sowie der männlichen Infertilität wird experimentell in Zellkultur in einem charakteristischen Zellmodell gezeigt. Zur Verabreichung an Menschen und Tiere wird mindestens ein erfindungsgemäße Tetrapeptid als medizinisches Mittel in einer pharmazeutisch akzeptablen Komposition als Arzneimittel formuliert. Das medizinische Mittel wird zur Behandlung der Osteoporose, myodegenerativen Erkrankungen sowie der männlichen Infertilität bei Menschen und Tieren eingesetzt. Es löst dabei keine übermäßige Toxizität, Irritationen oder allergische Reaktionen aus. Bevorzugt wird das medizinische Mittel umfassend mindestens ein erfindungsgemäßes Tetrapeptid Menschen oder Tieren in Form entweder oral, intramuskulär, intraossär, rektal, parenteral, intravenös, subkutan, intracisternal, intravaginal, intraperitoneal, intrathekal, intravasculär, lokal (Puder, Salbe oder Tropfen), in Sprayform oder als Pflaster verabreicht. Dosierungsformen für die örtliche Administration des medizinischen Mittels dieser Erfindung schließen Salben, Puder, Sprays oder Inhalationsmittel ein. Das mindestens eine erfindungsgemäße Tetrapeptid als medizinisches Mittel wird unter sterilen Bedingungen mit einem physiologisch akzeptablen Trägerstoff und möglichen Konservierungsmitteln, Puffern oder Treibmitteln, je nach Bedarf, vermischt. Ein Konservierungsmittel ist eine Chemikalie, die zugesetzt wird, um die Zersetzung zu verhindern. […]

Claudin-5 = assay: Stimulation of Claudin-5 formation, fluorescence measurement; conditions: 93RS2 Sertoli-Zellen; relative to control sample without tetrapeptide
Description: as §1

Myogenin = assay: Stimulation of myogenin formation, fluorescence measurement; conditions: L6-Myoblasten; relative to control sample without tetrapeptide
Description: as §2

[5] = tested on: Fokalen Adhäsionskinase (FAK); assay: Stimulation/activation of focal adhesion kinase, fluorescence measurement; conditions: L6-Myoblasten
Description: as §2

[6] = tested on: Fokalen Adhäsionskinase (FAK); assay: as above; conditions: L6-Myoblasten; 6 Stunden Inkubation; versus reference sample; Fig. 3A
Description: (§3) Zur Verabreichung an Menschen und Tiere wird mindestens ein erfindungsgemäße Tetrapeptid als medizinisches Mittel in einer pharmazeutisch akzeptablen Komposition als Arzneimittel formuliert. […] Bevorzugt wird das medizinische Mittel umfassend mindestens ein erfindungsgemäßes Tetrapeptid Menschen oder Tieren in Form entweder oral, intramuskulär, intraossär, rektal, parenteral, intravenös, subkutan, intracisternal, intravaginal, intraperitoneal, intrathekal, intravasculär, lokal (Puder, Salbe oder Tropfen), in Sprayform oder als Pflaster verabreicht. Dosierungsformen für die örtliche Administration des medizinischen Mittels dieser Erfindung schließen Salben, Puder, Sprays oder Inhalationsmittel ein. Das mindestens eine erfindungsgemäße Tetrapeptid als medizinisches Mittel wird unter sterilen Bedingungen mit einem physiologisch akzeptablen Trägerstoff und möglichen Konservierungsmitteln, Puffern oder Treibmitteln, je nach Bedarf, vermischt. Ein Konservierungsmittel ist eine Chemikalie, die zugesetzt wird, um die Zersetzung zu verhindern. […] Bevorzugt wird das medizinische Mittel dieser Erfindung als Lyophilisat hergestellt. Bevorzugt wird das medizinische Mittel dieser Erfindung oral verabreicht.

[7] = tested on: Alkalischen Phosphatase (ALP); assay: Expression of alkaline phosphatase, immunofluorescence; conditions: SAOS-2 Osteoblasten; Fig. 2A, 2B
Description: as §3

SAOS-2-Zellen [8] = assay: Stimulation of ossification, Alizarin red staining; remark: listed apart in the source
Description: as §3

L6-Myoblasten [9] = assay: Formation of myotubes (muscle fibres) from myoblasts; conditions: 9 Stunden Inkubation, Fig. 3B; remark: listed apart in the source
Description: as §3

CC[C@H](C)[C@H](N)C(=O)N[C@@H](C)C(=O)N1CCC[C@H]1C(=O)NCC(=O)O [Peptid-1, IAPG] (H-IAPG-OH)
Stimulierung der Ossifikation (SAOS-2-Zellen [1]; 4 Tagen Inkubation, Fig. 1A): Stimulierung der Ossifikation | Stimulierung der Ossifikation (SAOS-2-Zellen [1]; 11 Tagen Inkubation, Fig. 1B): Stimulierung der Ossifikation | Farbstärke (Alizarinrot) (SAOS-2-Zellen [1]; relative to equally treated control sample without tetrapeptide): wenigstens den dreifachen Wert | Fluoreszenzintensität (Claudin-1) (Claudin-1): wenigstens den dreifachen Wert | Expression von Zonula occludens-1 (ZO-1) [2]: stimulierenden Wirkung | Bildung von Myotuben (Muskelfasern) (L6-Myoblasten [3]): Myotuben (= Muskelfasern) gebildet | Bildung von Myotuben (Muskelfasern) (L6-Myoblasten [3]; listed as Tetrapeptid Seq ID 1): die Muselfaserbildung stimuliert | Expression der Alkalischen Phosphatase (grüne Fluoreszenz) [4]: Abnahme der grünen Fluoreszenz | Häufigkeit (Frequenz) der Fluoreszenzintensität, Expression der ALP ([4]; ab dem Wert 65, % of frequency in tetrapeptide-free control cells): ≤ 50% | Fluoreszenzintensität (Claudin-5) (Claudin-5): wenigstens den dreifachen Wert | Fluoreszenzintensität (Myogenin) (Myogenin): wenigstens den dreifachen Wert | grüne Fluoreszenz (FAK) ([5]; 6 Stunden Inkubation, versus reference sample, Fig. 3A): stärkere grüne Fluoreszenz | Fluoreszenzintensität (FAK) ([5]; relative to control sample without tetrapeptide): wenigstens den dreifachen Wert

CC(C)[C@H](NC(=O)CN)C(=O)N[C@@H](CO)C(=O)NCC(=O)O [Peptid-2, GVSG] (H-GVSG-OH)
Stimulierung der Ossifikation (SAOS-2-Zellen [1]; 4 Tagen Inkubation, Fig. 1A): Stimulierung der Ossifikation | Stimulierung der Ossifikation (SAOS-2-Zellen [1]; 11 Tagen Inkubation, Fig. 1B): Stimulierung der Ossifikation | Expression von Zonula occludens-1 (ZO-1) [2]: stimulierenden Wirkung | Expression der Alkalischen Phosphatase (grüne Fluoreszenz) [4]: Abnahme der grünen Fluoreszenz

C[C@]12CC[C@H]3[C@@H](CCC4=CC(=O)CC[C@@]43C)[C@@H]1CC[C@@H]2O [Testosteron]
grüne Fluoreszenz (FAK) [6]: stärkere grüne Fluoreszenz | Expression der Alkalischen Phosphatase (grüne Fluoreszenz) [7]: Abnahme der grünen Fluoreszenz | Stimulierung der Ossifikation (SAOS-2-Zellen [8]; 4 Tagen Inkubation, Fig. 1A): Stimulierung der Ossifikation | Stimulierung der Ossifikation (SAOS-2-Zellen [8]; 11 Tagen Inkubation, Fig. 1B): Stimulierung der Ossifikation | Bildung von Myotuben (Muskelfasern) (L6-Myoblasten [9]): Myotuben (= Muskelfasern) gebildet

GWG [Peptid-3]
Expression von Zonula occludens-1 (ZO-1) [2]: stimulierenden Wirkung
